# Source: patent publication US11491162B2, “Combination of quinoline-4-carboxamides and benzonaphthyridine derivatives as antimalarial drug combination” (Merck Patent GmbH, priority 2018, dated 2022)
# Where a name gives a salt, the structure may show the parent alone.
# Legend:
# [1] = tested on: P. falciparum Pf3D7^0087/N9; test: In vivo SCID mouse model, oral therapeutic efficacy; design: species or system Plasmodium falciparum; conditions: for % control: day 7; for Activity: day 7 vs untreated control
# Protocol: Compound efficacy was assessed against the Plasmodium falciparum strain Pf3D7^0087/N9 in vivo. Mice are infected intravenously with parasitized red blood cells on day 0. Experimental mice are generally treated at day 3, 4, 5, and 6 post-infection with an oral dose of the compound (single or 4-day oral dosing regimen) and are compared to an infected control group for reduction in parasitemia on day 7 (Maria Belen Jimenez-Díaz, Teresa Mulet, Sara Viera, Vanessa Gomez, Helen Garuti, Javier Ibanez, Angela Alvarez-Doval, Leonard D. Shultz, Antonio Martínez, Domingo Gargallo-Viola, and Inigo Angulo-Barturen, Improved Murine Model of Malaria Using Plasmodium falciparum Competent Strains and Non-Myelodepleted NOD-scid IL2Rgammanull Mice Engrafted with Human Erythrocytes, Antimicrob Agents Chemother. 2009, 53:4533).
# PYRO and M1 were solubilized in a vehicle consisting of 70% Tween-80 and 30% ethanol, followed by a 10-fold dilution in H2O.
# P-gp = biological target: T1, P-gp (Homo sapiens, UniProt P08183); test: Inhibition of Pgp-mediated efflux of M1 in Caco-2 monolayer; type: cell-based; conditions: M1 as substrate
# T1 construct: In Caco-2 monolayer cells, M1 is effluxed by P-gp transporters with a ratio of 18.2; endogenous in cells; host or cells: Caco-2 cells, differentiated monolayers on polycarbonate filter inserts
# T1 sequence (P08183 whole entry): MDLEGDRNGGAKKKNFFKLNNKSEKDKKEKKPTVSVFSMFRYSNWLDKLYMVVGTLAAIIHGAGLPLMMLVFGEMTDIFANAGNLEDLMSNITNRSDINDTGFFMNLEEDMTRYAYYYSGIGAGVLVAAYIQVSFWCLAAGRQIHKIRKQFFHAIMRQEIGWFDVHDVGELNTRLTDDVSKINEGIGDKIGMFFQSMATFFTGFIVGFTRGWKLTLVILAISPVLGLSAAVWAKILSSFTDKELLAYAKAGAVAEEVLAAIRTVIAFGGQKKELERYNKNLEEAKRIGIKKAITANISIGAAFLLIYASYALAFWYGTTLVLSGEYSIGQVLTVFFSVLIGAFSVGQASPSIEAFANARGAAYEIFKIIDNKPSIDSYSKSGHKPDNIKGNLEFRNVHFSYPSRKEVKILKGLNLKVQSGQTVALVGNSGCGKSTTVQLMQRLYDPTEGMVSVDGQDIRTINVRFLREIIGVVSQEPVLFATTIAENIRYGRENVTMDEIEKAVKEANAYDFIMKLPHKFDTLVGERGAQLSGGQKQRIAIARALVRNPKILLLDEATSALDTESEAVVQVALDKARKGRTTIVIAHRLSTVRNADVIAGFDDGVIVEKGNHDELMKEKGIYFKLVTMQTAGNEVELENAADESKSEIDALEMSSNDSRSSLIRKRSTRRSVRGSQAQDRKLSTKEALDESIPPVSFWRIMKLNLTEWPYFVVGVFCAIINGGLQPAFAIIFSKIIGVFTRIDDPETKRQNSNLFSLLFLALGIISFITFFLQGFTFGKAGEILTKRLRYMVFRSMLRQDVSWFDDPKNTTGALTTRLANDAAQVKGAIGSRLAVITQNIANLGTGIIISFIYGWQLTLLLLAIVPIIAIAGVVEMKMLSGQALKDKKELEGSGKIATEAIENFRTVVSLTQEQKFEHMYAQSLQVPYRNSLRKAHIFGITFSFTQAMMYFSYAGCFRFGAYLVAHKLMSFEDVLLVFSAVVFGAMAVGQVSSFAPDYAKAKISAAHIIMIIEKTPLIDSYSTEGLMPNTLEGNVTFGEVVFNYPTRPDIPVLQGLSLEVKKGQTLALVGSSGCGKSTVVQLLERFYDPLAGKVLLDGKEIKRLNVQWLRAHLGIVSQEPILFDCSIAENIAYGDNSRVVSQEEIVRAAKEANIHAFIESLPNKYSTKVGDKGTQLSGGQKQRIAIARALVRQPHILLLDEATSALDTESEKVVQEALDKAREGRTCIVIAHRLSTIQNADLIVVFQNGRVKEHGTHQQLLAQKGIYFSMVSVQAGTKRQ
# [2] = PYRO 4 × 1 MG/KG oral, SCID mice, Table 2
# [3] = PYRO 4 × 3 MG/KG oral, SCID mice, Table 2
# [4] = PYRO 4 × 9 MG/KG oral, SCID mice, Table 2
# [5] = Table 4 entry 3: M1 0 mg/kg, PYRO 4 × 3 mg/kg, oral
# [6] = Table 4 entry 3: M1 0 mg/kg, PYRO 4 × 3 mg/kg, oral, LLQ = <0.01% parasitemia
# [7] = Table 4 entry 5: M1 0 mg/kg, PYRO 4 × 9 mg/kg, oral
# [8] = Table 4 entry 5: M1 0 mg/kg, PYRO 4 × 9 mg/kg, oral, LLQ = <0.01% parasitemia
# [9] = Table 4 entry 7: M1 0 mg/kg, PYRO 4 × 30 mg/kg, oral
# [10] = Table 4 entry 7: M1 0 mg/kg, PYRO 4 × 30 mg/kg, oral, LLQ = <0.01% parasitemia
smiles,measurement,setting,value
"COc1ccc2nc3cc(Cl)ccc3c(Nc3cc(CN4CCCC4)c(O)c(CN4CCCC4)c3)c2n1 [PYRO, pyronaridine tetraphosphate salt]",% PARASITEMIA day 3 post infection,[1]; [2],0.63%
same,% PARASITEMIA day 4 post infection,[1]; [2],1.21%
same,% PARASITEMIA day 5 post infection,[1]; [2],3.14%
same,% PARASITEMIA day 6 post infection,[1]; [2],4.53%
same,% PARASITEMIA day 7 post infection,[1]; [2],7.55%
same,% control,"[1]; PYRO 4 × 1 MG/KG oral, SCID mice",82.6%
same,Activity,"[1]; PYRO 4 × 1 MG/KG oral, SCID mice, 1 mg/kg",17.4%
same,Activity,"[1]; PYRO 4 × 1 MG/KG oral, SCID mice, listed as pyronaridine, 1 mg/kg",17%
same,% PARASITEMIA day 3 post infection,[1]; [3],0.71%
same,% PARASITEMIA day 4 post infection,[1]; [3],1%
same,% PARASITEMIA day 5 post infection,[1]; [3],0.44%
same,% PARASITEMIA day 6 post infection,[1]; [3],0.25%
same,% PARASITEMIA day 7 post infection,[1]; [3],0.04%
same,% control,"[1]; PYRO 4 × 3 MG/KG oral, SCID mice",0.4%
same,Activity,"[1]; PYRO 4 × 3 MG/KG oral, SCID mice, 3 mg/kg",99.6%
same,Activity,"[1]; PYRO 4 × 3 MG/KG oral, SCID mice, listed as pyronaridine, 3 mg/kg",99.6%
same,% PARASITEMIA day 3 post infection,[1]; [4],0.7%
same,% PARASITEMIA day 4 post infection,[1]; [4],0.28%
same,% PARASITEMIA day 5 post infection,[1]; [4],0.15%
same,% PARASITEMIA day 6 post infection,[1]; [4],0.063%
same,% PARASITEMIA day 7 post infection,"[1]; PYRO 4 × 9 MG/KG oral, SCID mice, Table 2, LLQ = <0.01% parasitemia, 9 mg/kg",<LLQ
same,% PARASITEMIA day 7 post infection,"[1]; PYRO 4 × 9 MG/KG oral, SCID mice, Table 2, LLQ = <0.01% parasitemia, listed as pyronaridine, 9 mg/kg",parasite-free
same,% control,"[1]; PYRO 4 × 9 MG/KG oral, SCID mice, LLQ = <0.01% parasitemia",<LLQ
same,Activity,"[1]; PYRO 4 × 9 MG/KG oral, SCID mice, 9 mg/kg",100%
same,Activity,"[1]; PYRO 4 × 9 MG/KG oral, SCID mice, listed as pyronaridine, 9 mg/kg",> 99.9%
same,% PARASITEMIA day 3 post infection,[1]; [5],1.16%
same,% PARASITEMIA day 4 post infection,[1]; [5],0.67%
same,% PARASITEMIA day 5 post infection,[1]; [5],0.08%
same,% PARASITEMIA day 6 post infection,[1]; [5],0.01%
same,% PARASITEMIA day 7 post infection,[1]; [6],<LLQ
same,% PARASITEMIA day 10 post infection,[1]; [6],<LLQ
same,% PARASITEMIA day 3 post infection,[1]; [7],1.09%
same,% PARASITEMIA day 4 post infection,[1]; [7],0.34%
same,% PARASITEMIA day 5 post infection,[1]; [7],0.05%
same,% PARASITEMIA day 6 post infection,[1]; [8],<LLQ
same,% PARASITEMIA day 7 post infection,[1]; [8],<LLQ
same,% PARASITEMIA day 10 post infection,[1]; [8],<LLQ
same,% PARASITEMIA day 3 post infection,[1]; [9],1.13%
same,% PARASITEMIA day 4 post infection,[1]; [9],0.14%
same,% PARASITEMIA day 5 post infection,[1]; [9],0.02%
same,% PARASITEMIA day 6 post infection,[1]; [9],0.01%
same,% PARASITEMIA day 7 post infection,[1]; [10],<LLQ
same,% PARASITEMIA day 10 post infection,[1]; [10],<LLQ
same,concentrations at which PYRO inhibited Pgp-mediated efflux of M1,P-gp,greater than 10 μM
